Source: patent US4299821A, “Tripeptides acting on the central nervous system and a process for the preparation thereof” (Richter Gedeon Vegyeszeti Gyar Rt., priority 1979, dated 1981)
Where a SMILES comes first, the peptide text is derived from it. [ ]: non-standard residue; d: D form. pGlu = O=C1CC[C@@H](C(=O)O)N1; Nle = CCCC[C@H](N)C(=O)O; Nva = CCC[C@H](N)C(=O)O; Abu = CC[C@H](N)C(=O)O

What was measured:
[1] = system: sleeping caused by hexobarbital; test: Influencing the duration of sleeping caused by hexobarbital; format: in vivo, male mice; details: mice, hexobarbital sodium 60 mg/kg i.v., 10 min later compound 20 mg/kg i.p.; control 38.4 ± 1.36 min.
Protocol: (4) Influencing the duration of sleeping caused by hexobarbital The tests were performed on groups of 10 male mice each. The animals were treated intravenously with 60 mg/kg of hexobarbital sodium ([…]; Bayer), and 10 minutes later 20 mg/kg of TRH or a tripeptide under examination were administered intraperitoneally into the animals. The sleeping times of the animals were recorded, averages were calculated for the individual groups, and the results were expressed as percents related to the control group.

[2] = system: Ethanol narcosis; test: Ethanol narcosis; format: in vivo; details: mice, 4.5 g ethanol i.p., 10 min later compound 20 mg/kg i.p.; control 46.9 ± 2.17 min.
Protocol: (5) Ethanol narcosis (see J. M. Cott et al.: J. Pharm. Exp. Ther. 196, 594 /1976/) The tests were performed on groups of 20 mice of both sexes, each weighing 18 to 22 g. […] of ethanol were introduced intraperitoneally into the animals, and 10 minutes later the animals were treated intraperitoneally with 20 mg/kg of TRH or a tripeptide under examination. The sleeping periods of the animals were recorded, averages were calculated for the individual groups, and the results were expressed as percents related to the control group.

[3] = system: Reserpine hypothermy; test: Reserpine hypothermy-reversing effect on mice; format: in vivo, male mice; details: average of 10 animals; for Reserpine hypothermy reversing effect, Rectal temperature res.: 16 hours after reserpine 5 mg/kg i.p., before the tripeptide; for Reserpine hypothermy reversing effect, Rectal temperature norm.: prior to the administration of reserpine (baseline of the group); for Reserpine hypothermy reversing effect, Rectal temperature obs. time 1 h / Reserpine hypothermy reversing effect, Rectal temperature obs. time 2 h: reserpine 5 mg/kg i.p.; for Reserpine hypothermy reversing effect, Rectal temperature obs. time 1 h: 1 hour after 20 mg/kg of the tripeptide; for Reserpine hypothermy reversing effect, Rectal temperature obs. time 2 h: 2 hours after 20 mg/kg of the tripeptide
Protocol: (3) Reserpine hypothermy-reversing effect on mice (see B. M. Askew: Life Sci. 2, 725-730 /1963/)
The tests were performed on groups of 10 male mice each, weighing 18 to 22 g. Reserpine was administered into the animals in an intraperitoneal dosage of 5 mg/kg, and 16 hours later the animals were treated with 20 mg/kg of TRH or a tripeptide under examination.
The rectal temperature of the animals was measured prior to the administration of reserpine (marked by "norm." in Table 1), 16 hours after the administration of reserpine (marked by "res." in Table 1), furthermore 1 and 2 hours after the administration of the tripeptide (marked by "obs. time" in Table 1). The data listed in Table 1 are the averages of the temperatures observed on the 10 animals.

[4] = system: TSH; test: Hormonal activity (TSH effect) on rats; format: in vivo, male Wistar rats; details: 20 mg/kg i.v., plasma TSH by radioimmune assay 15 min after treatment, relative activity, TRH = 100%
Protocol: (6) Hormonal activity (TSH effect) on rats
The tests were performed on groups of 7 or 8 male Wistar rats each, weighing 200 g. The animals were treated intravenously with 20 mg/kg of TRH or a tripeptide under examination. The TSH reaction of the animals was evaluated 15 minutes after this treatment, by subjecting the blood plasma to radioimmune assay. The relative activities were calculated by the four-point method using a TPA 101 computer, and the activity of TRH was regarded as 100%.

[5] = system: Haloperidol-induced catalepsy; test: Inhibition of Haloperidol-induced catalepsy on rats; format: in vivo, male Wistar rats; details: 40 mg/kg Haloperidol s.c., compound i.v. 120 min later, probit analysis, observation time per compound
Protocol: (1) Inhibition of Haloperidol-induced catalepsy on rats (see J. Delay and P. Deniker: Compt. Rend. Congr. Med. Alenistes Neurologistes, 19, 497, Luxembourg, 1952)
The tests were performed on male Wistar rats weighing 160 to 180 g.
40 mg/kg of 4-(p-chlorophenyl)-1-(3-/p-fluorobenzoyl/propyl)-piperidin-4-ol(Haloperidol) were administered subcutaneously into the animals, and 120 minutes after this treatment the animals were checked for the appearance of catalepsy. The rats were divided into groups of 10 animals each, and treated intravenously with TRH or the new TRH analogues. The animals belonging to the control group received physiological saline. The catalepsy-suspending effects of the individual compounds were determined 15, 30, 60, 90 and 120 minutes after the treatment. The animals that had not changed their position for 30 seconds after placing their fore-paw onto a 7 cm high column were regarded as cataleptic.

[6] = system: locomotive activity induced by L-Dopa; test: Potentiation of locomotive activity induced on mice by L-Dopa; format: in vivo, male mice; details: Pargyline 40 mg/kg i.p., compound 20 mg/kg i.p., L-Dopa 100 mg/kg i.p., percent related to TRH; for Potentiation of the locomotive effect of L-Dopa % after 30': 30 min; for Potentiation of the locomotive effect of L-Dopa % after 60': 60 min; for Potentiation of the locomotive effect of L-Dopa % after 90': 90 min
Protocol: (2) Potentiation of locomotive activity induced on mice by L-Dopa (see The Thyroid Axis, Drugs and Behavior, p. 116, A. J. Prage Jr., Raven Press, New York, 1974)
The tests were performed on groups of 15 male mice each, weighing 18 to 22 g.
First, the animals were treated intraperitoneally with 40 mg/kg of N-methyl-N-propargyl-benzylamine (Pargyline), and then an intraperitoneal dosage of 20 mg/kg of TRH or a TRH-analogue was introduced, followed by an intraperitoneal dosage of 100 mg/kg of L-Dopa. The locomotive activity of the animals was recorded 30, 60 and 90 minutes after this treatment, and the level of potentiation was expressed in percents related to the results observed with TRH.

Structure (SMILES) | Decrease of sleeping period (% related to the control animals) Hexobarb. [1] [%] | Decrease of sleeping period (% related to the control animals) Ethanol [2] [%] | Reserpine hypothermy reversing effect, Rectal temperature res. [3] [°C] | Reserpine hypothermy reversing effect, Rectal temperature norm. [3] [°C] | Reserpine hypothermy reversing effect, Rectal temperature obs. time 1 h [3] [°C] | Reserpine hypothermy reversing effect, Rectal temperature obs. time 2 h [3] [°C] | TSH effect [4] [%] | Inhibition of Haloperidol catalepsy ED50 [5] [mg/kg] | Potentiation of the locomotive effect of L-Dopa % after 30' [6] [%] | Potentiation of the locomotive effect of L-Dopa % after 60' [6] [%] | Potentiation of the locomotive effect of L-Dopa % after 90' [6] [%]
NC(=O)[C@@H]1CCCCN1C(=O)[C@H](Cc1c[nH]cn1)NC(=O)[C@@H]1CCC(=O)N1 [His HPro H, L-Pyroglutamyl-L-histidyl-L-homoprolinamide] | 63 | 114 | 28.5 | 36.5 | 35.3 | 35.4 | 68.6 | 13.7 | 209 | 85 | 110
CCC[C@H](NC(=O)[C@@H]1CCC(=O)N1)C(=O)N1CCC[C@H]1C(N)=O [Nva Pro H, L-Pyroglutamyl-L-norvalyl-L-prolinamide] ([pGlu]-[Nva]-Pro-NH2) | 114 | 77 | 25.9 | 36.2 | 36.4 | 32.0 | 0 | 11.4 | 254 | 156 | 214
CCNC(=O)[C@@H]1CCCN1C(=O)[C@H](CC(C)C)NC(=O)[C@@H]1CCC(=O)N1 [Leu Pro Et, L-Pyroglutamyl-L-leucyl-L-proline ethylamide] ([pGlu]-Leu-Pro-NHEt) | 126 | 65 | 28.7 | 36.2 | 30.7 | 33.4 | 0 | 56.6 | 102 | 90 | 201
CC[C@H](NC(=O)[C@@H]1CCC(=O)N1)C(=O)N1CCC[C@H]1C(N)=O [Abu Pro H, L-Pyroglutamyl-L-α-aminobutyl-L-prolinamide] ([pGlu]-[Abu]-Pro-NH2) | 84 | 39 | 19.7 | 36.3 | 22.2 | 25.4 | 0.02 | 80 | 27 | 14 | 18
CCCC[C@H](NC(=O)[C@@H]1CCC(=O)N1)C(=O)N1CCC[C@H]1C(N)=O [Nleu Pro H, L-Pyroglutamyl-L-norleucyl-L-prolinamide] ([pGlu]-[Nle]-Pro-NH2) | 77 | 74 | 27.1 | 36.3 | 37.6 | 32.2 | 3.8 | 16.8 | 249 | 105 | 112
NC(=O)[C@@H]1CCCN1C(=O)[C@H](Cc1c[nH]cn1)NC(=O)[C@@H]1CCC(=O)N1 [TRH, L-pyroglutamyl-L-histidyl-L-prolinamide, reference compound] | 56 | 35 | 25.9 | 36.2 | 33.5 | 30.2 | 100.0 | 80 | 100 | 100 | 100
